Literature values in patent publication US20080286377A1 (priority 2001, published 2008).

What was measured:
[1] = test system: osteolysis associated with wear debris; conditions: systemic administration
[2] = test system: alveolar bone resorption
[3] = activity assays
[4] = test system: bone resorption; conditions: mild to moderate Paget's disease; administration for 10 days (intravenous) to 6 months (oral); SAP activity and UHP excretion as indicators

With `NCCCC(O)(P(=O)(O)O)P(=O)(O)O` [alendronate] as the compound, how does the “osteolysis associated with wear debris” value [1] read?
The value was “inhibited osteolysis”.

What about the “prevention of resorption, 10-second contact” value ([2]; 10-second contact of soaked pellet to alveolar bone) of the same compound?
Its value is “ineffective in preventing resorption”.

And the “bone resorption after local administration” value ([2]; drug-soaked pellet against alveolar bone for 2 hours, monitored 21 days later)?
The value was “significantly reduced bone resorption”.

What about the “prevention of resorption, systemic administration” value ([2]; systemic administration) of the same compound?
Its value is “effective”.

For `N.N.[Cl][Pt][Cl]` [cisplatin], which “effect of PMMA polymerization process on drug potency” value (shortened to “effect of PMMA polymerization process”) [3] is on record?
Its value is “did not adversely impact or alter the therapeutic potential”.

With `CN(Cc1cnc2nc(N)nc(N)c2n1)c1ccc(C(=O)N[C@@H](CCC(=O)O)C(=O)O)cc1` [methotrexate] as the compound, how does the “effect of PMMA polymerization process” value [3] read?
Its value is “did not adversely impact or alter the therapeutic potential”.

For `NCCC(O)(P(=O)(O)O)P(=O)(O)O` [pamidronate disodium], which “biochemical remission of bone resorption, mean duration” value [4] is on record?
Its value is 2.7 years.

Which “effect of PMMA polymerization process” value [3] does the source give for Gentamicin here?
Its value is “did not adversely impact or alter the therapeutic potential”.
